For one assay, the system named is calf thymus DNA (ct-DNA). As to the kind of experiment: Melting temperature (Tm) measurements of ct-DNA, thermal denaturation. It counts as binding. The following applies: for ΔTm ct-DNA: r = [compound]/[ct-DNA] = 0.3, pH 7.0, 20 mM cacodylate buffer, Tm of ct-DNA alone 74 °C; for effect on thermal stability of ct-DNA (in words): thermal melting experiments. The method, then: The melting temperature (Tm) of DNA is defined as the temperature at which 50% of the DNA is in form of single strands forming randomly coiled structures. DNA melting is measured by the absorbance of UV light (260 nm) by the DNA solution, where the amount of UV light absorbed is proportional to the fraction of non-bonded base pairs. The majority of DNA-binding small molecules known thus far stabilize duplex DNA against heat denaturation. A high, drug-induced increase in the Tm of DNA is generally viewed as an excellent criterion to select DNA ligands and is a common feature of several anticancer drugs such as intercalators (a significant increase in Tm = 3–8 °C is observed for strong intercalation) and alkylators. The reverse situation (destabilization of DNA to facilitate its denaturation) may be an attractive option to identify therapeutic agents acting on the DNA structure.
Our study conducted Tm measurement to estimate the impact of 1,8-naphthalimides bearing the carborane cluster on DNA stabilization (Table 1, Figures S249–S253, ESI).
The measurements were performed by adding aliquots of DMSO stock solution of the tested compounds to the buffer solution (pH 7.0, 20 mM, cacodylate buffer, DMSO content of the final solution = 0.24–0.36%). The Tm curves were collected at r = 0.3 (r = [compound]/[ct-DNA]) to assure the dominant binding mode. Thermal melting curves were determined by following the absorption change at 260 nm as a function of temperature by using a GBC Cintra10 UV–vis spectrometer (Dandenong, Australia) equipped with a GBC Thermocell Peltier Power Supply (Dandenong, Australia) using a 1 cm path length cell. The absorbance of the samples was monitored at 260 nm from 30 to 90 °C (95 °C for compounds 54–61) with a heating rate of 1 °C/min. Tm values are the midpoints or the transition curves determined from the maximum of the first derivative. The ΔTm values were calculated by subtracting the Tm of the free nucleic acid from the Tm of the sample. Every Tm value reported in this study was average at least three measurements. The error in Tm was 0.5 °C.

The subject of the next assay is HepG2 cells. As to the kind of experiment: In vitro cytotoxic activity, MTT assay. It counts as cell-based, human. To be noted: 24 h treatment, read-out: IC50, compound concentration required to inhibit cell growth by 50%. The method, then:
The obtained 1,8-naphthalimide–carborane conjugates were investigated for their in vitro antitumor activity by examining their cytotoxic effects using the MTT tetrazolium dye assay against the human cancer cell line HepG2 established from hepatocellular carcinoma. IC50 refers to the drug concentration (µM) required to inhibit cell growth by 50%.
The cytotoxic properties of the synthesized compounds were evaluated using the human hepatocellular carcinoma cell line HepG2 established from hepatocellular carcinoma. The HepG2 cell line was purchased from ECACC (Salisbury, UK). Cells were grown in EMEM medium (Corning®) supplemented with 10% heat-inactivated fetal bovine serum (FBS) (Corning®) and antibiotics (Corning®), at 37 °C in a 5% CO2 atmosphere. Upon reaching 80–90% confluency, cells were detached with the trypsin (Corning®) and transferred into 96-well microplates at a density of 12 × 10^3. After overnight incubation at 37 °C in a humidified atmosphere containing 5% CO2, the cells were treated for the next 24 h with compounds. The stock solution of each compound was prepared in DMSO at 10 mM. The cytotoxicity was evaluated by the MTT assay. […] Subsequently, the medium was aspirated and replaced with 3-(4,5-dimethylthiazol-2-yl)-2,5-diphenyltetrazolium bromide (MTT) dye solution (50 µL, 0.5 mg/mL). After 3 h incubation, the resulting MTT formazan crystals were dissolved in DMSO (100 µL). To ensure the complete dissolution of formazan, the plates were shaken on an orbital microplate shaker at 1000 rpm for 15 min (Thermoshaker NeoLab 7–0055, Bionovo, Legnica, Poland). The optical density of each well was then measured on a VICTOR Nivo multimode plate reader at a wavelength of 570 nm. Each experiment consisted of 6 replications of each concentration, and each experiment was repeated three times independently. The results were calculated as a percentage of control group viability. The IC50 values were determined using a non-linear regression from the plot of % viability against log dose of compounds by using GraphPad Prism 6.0 software (GraphPad, San Diego, CA, USA).

The target of a further assay is T1, human topoisomerase IIα (Homo sapiens, UniProt P11388).
T1 construct: purchased Inspiralis (Norwich, UK)
T1 sequence (P11388 whole entry): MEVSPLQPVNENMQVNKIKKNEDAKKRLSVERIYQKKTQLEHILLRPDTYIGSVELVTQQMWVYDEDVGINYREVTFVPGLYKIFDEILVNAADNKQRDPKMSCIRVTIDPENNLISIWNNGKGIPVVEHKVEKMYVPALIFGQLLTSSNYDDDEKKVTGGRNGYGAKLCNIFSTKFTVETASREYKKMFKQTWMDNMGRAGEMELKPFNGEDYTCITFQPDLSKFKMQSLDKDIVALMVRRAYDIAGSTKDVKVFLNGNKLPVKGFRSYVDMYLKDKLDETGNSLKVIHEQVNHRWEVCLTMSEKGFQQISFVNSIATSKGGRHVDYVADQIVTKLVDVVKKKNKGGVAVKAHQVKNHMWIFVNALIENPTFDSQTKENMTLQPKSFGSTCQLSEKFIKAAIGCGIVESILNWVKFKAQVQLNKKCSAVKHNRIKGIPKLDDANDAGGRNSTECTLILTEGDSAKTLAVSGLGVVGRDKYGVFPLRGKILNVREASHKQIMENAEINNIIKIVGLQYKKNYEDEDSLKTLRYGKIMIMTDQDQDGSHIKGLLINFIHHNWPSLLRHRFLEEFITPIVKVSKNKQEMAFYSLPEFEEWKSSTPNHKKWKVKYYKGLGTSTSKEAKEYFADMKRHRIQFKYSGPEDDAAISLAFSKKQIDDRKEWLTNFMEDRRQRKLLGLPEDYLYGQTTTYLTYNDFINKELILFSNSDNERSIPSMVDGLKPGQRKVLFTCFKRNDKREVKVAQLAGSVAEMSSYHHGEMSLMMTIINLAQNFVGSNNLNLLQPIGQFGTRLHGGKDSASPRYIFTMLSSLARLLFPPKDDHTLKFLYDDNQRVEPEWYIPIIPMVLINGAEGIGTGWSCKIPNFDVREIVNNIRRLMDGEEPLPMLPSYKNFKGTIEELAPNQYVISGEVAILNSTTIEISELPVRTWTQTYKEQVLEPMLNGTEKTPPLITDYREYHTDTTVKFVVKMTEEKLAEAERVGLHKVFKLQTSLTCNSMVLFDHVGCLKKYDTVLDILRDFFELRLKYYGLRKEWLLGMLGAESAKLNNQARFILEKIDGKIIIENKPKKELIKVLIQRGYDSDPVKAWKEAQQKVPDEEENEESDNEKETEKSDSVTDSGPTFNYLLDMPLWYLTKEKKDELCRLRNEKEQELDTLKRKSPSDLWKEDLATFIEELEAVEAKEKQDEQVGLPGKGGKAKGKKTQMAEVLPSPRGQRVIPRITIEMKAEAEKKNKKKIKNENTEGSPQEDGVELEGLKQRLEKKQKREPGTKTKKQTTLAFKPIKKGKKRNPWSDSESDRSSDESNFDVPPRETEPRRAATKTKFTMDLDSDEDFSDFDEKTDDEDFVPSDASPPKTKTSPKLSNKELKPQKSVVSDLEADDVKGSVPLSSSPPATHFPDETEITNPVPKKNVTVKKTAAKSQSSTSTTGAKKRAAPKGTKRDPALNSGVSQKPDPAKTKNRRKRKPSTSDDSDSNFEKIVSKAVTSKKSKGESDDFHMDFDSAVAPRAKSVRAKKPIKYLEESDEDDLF
The assay is described as follows: Human topoisomerase IIα relaxation assay. To be noted: supercoiled pBR322, concentration range 0.1–100 µM; read-out: IC50, compound concentration required to inhibit the activity of this enzyme by 50%. It counts as biochemical. The method, then:
Therefore, we subjected these compounds to further detailed analyses of inhibitory potential within the concentration range of 0.1–100 µM (Figure S301, ESI) to calculate IC50 values. IC50 refers to the compound concentration (µM) required to inhibit the activity of the topoisomerase enzyme by 50%.
The Human Topoisomerase II-alpha Relaxation Assay Kit was purchased from Inspiralis (Norwich, UK). The Topo IIα inhibition assay was performed as described by the manufacturer. […] Next, TopoIIα (1 U) was added, and the reaction mixture was incubated at 37 °C for an additional 45 min. The reaction was terminated by addition of the STEB buffer (40 % (w/v) sucrose, Tris-HCl (100 mM, pH 8), EDTA (1 mM), bromophenol blue (0.5 mg/mL)). The products were analyzed by electrophoresis using agarose gel (1%) in TAE buffer at 70 V for 2 h, followed by ethidium bromide staining. […] The percentage of Topo-II alpha activity inhibition was calculated by densitometric quantification (Quantity One software, Bio-Rad). The occurrence of a band representing supercoiled DNA on an agarose gel indicated the inhibition of enzyme activity.

We go through 20 substances from article PMC9101373, “Design of DNA Intercalators Based on 4-Carboranyl-1,8-Naphthalimides: Investigation of Their DNA-Binding Ability and Anticancer Activity” (International Journal of Molecular Sciences, 2022).

Turning to “N-[2-(Dimethylamino)ethyl]-4-{1-[3-(1,7-dicarba-closo-dodecaborane-1-yl)propyl]-1H-1,2,3-triazol-4-yl}methoxy-1,8-naphthalimide [Compound 18]”, in the assay on calf thymus DNA (ct-DNA), the “ΔTm ct-DNA” value worked out at 0.37 °C. In addition, in the assay on HepG2 cells, the IC50 was found to be 5.8 ± 0.23 µM.
“N-[2-(Dimethylamino)ethyl]-4-[3-(1,2-dicarba-closo-dodecaborane-1-yl)propoxy]-1,8-naphthalimide [Compound 24]”: in the assay with calf thymus DNA (ct-DNA), the “ΔTm ct-DNA” value turned out to be 1.33 °C and the “effect on thermal stability of ct-DNA (in words)” value (“effect on thermal stability” for short) is “better DNA stabilization”. Moreover, in the assay with HepG2 cells, the IC50 stood at 11 ± 0.66 µM.
Take “N-[2-(Dimethylamino)ethyl]-4-{1-[3-(1,2-dicarba-closo-dodecaborane-1-yl)propyl]-1H-1,2,3-triazol-4-yl}methoxy-1,8-naphthalimide [Compound 16]”: in the assay with calf thymus DNA (ct-DNA), the “ΔTm ct-DNA” value was 2.00 °C and the “effect on thermal stability” value is listed as “better DNA stabilization”. For the same substance, the IC50 with HepG2 cells stood at 8.17 ± 3.72 µM.
Take “N-[2-(N-Pyrrolidinyl)ethyl]-4-{1-[3-(1,2-dicarba-closo-dodecaborane-1-yl)propyl]-1H-1,2,3-triazol-4-yl}-1,8-naphthalimide [Compound 9]”: the “ΔTm ct-DNA” value in the assay with calf thymus DNA (ct-DNA) amounted to 0.67 °C. Moreover, the IC50 with HepG2 cells was 29.6 ± 1.89 µM.
Turning to “N-[2-(Dimethylamino)ethyl]-4-[(2-(3-(1,7-dicarba-closo-dodecaborane-1-yl)propanamido)ethyl)amino]-1,8-naphthalimide [Compound 37]”, in the assay on calf thymus DNA (ct-DNA), the “ΔTm ct-DNA” value came to 2.00 °C. Moreover, the “effect on thermal stability” value in the assay with calf thymus DNA (ct-DNA) is “better DNA stabilization”. In addition, the IC50 with HepG2 cells was found to be 10.5 ± 0.53 µM; on human topoisomerase IIα, 7.49 µM.
Take “4-{1-[3-(1,2-Dicarba-closo-dodecaborane-1-yl)propyl]-1H-1,2,3-triazol-4-yl}-1,8-naphthalic anhydride [Compound 6]”: in the assay with calf thymus DNA (ct-DNA), the “ΔTm ct-DNA” value is −0.33 °C and the “effect on thermal stability” value is on record as “destabilization”. Besides, in the assay with HepG2 cells, the IC50 stood at 71.2 ± 1.78 µM. The IC50 at human topoisomerase IIα was 7.73 µM.
In the case of “N-[2-(Dimethylamino)ethyl]-4-{1-[3-(1,7-dicarba-closo-dodecaborane-1-yl)propyl]-1H-1,2,3-triazol-4-yl}-1,8-naphthalimide [Compound 10]”, in the assay with calf thymus DNA (ct-DNA), the “ΔTm ct-DNA” value worked out at 0.67 °C. Also, the IC50 in the assay with HepG2 cells amounted to 5.35 ± 1.9 µM.
With “N-[2-(Dimethylamino)ethyl]-4-{1-[3-(1,2-dicarba-closo-dodecaborane-1-yl)propyl]-1H-1,2,3-triazol-4-yl}-1,8-naphthalimide [Compound 8]”, the “ΔTm ct-DNA” value with calf thymus DNA (ct-DNA) came out at 0.33 °C. Moreover, the IC50 turned out to be 9.65 ± 1.02 µM with HepG2 cells and 0.58 µM on human topoisomerase IIα.
Consider “N-[2-(N-Pyrrolidinyl)ethyl]-4-[(2-(3-(1,7-dicarba-closo-dodecaborane-1-yl)propanamido)ethyl)amino]-1,8-naphthalimide [Compound 39]”, for which the “ΔTm ct-DNA” value in the assay on calf thymus DNA (ct-DNA) was determined as 1.00 °C. Also, the IC50 in the assay on HepG2 cells was 9.85 ± 0.59 µM.
Regarding “4-[3-(1,2-Dicarba-closo-dodecaborane-1-yl)propoxy]-1,8-naphthalic anhydride [Compound 22]”, in the assay with calf thymus DNA (ct-DNA), the “ΔTm ct-DNA” value is −1.00 °C and the “effect on thermal stability” value was “destabilization”. In the assay on HepG2 cells, the IC50 was 28.7 ± 3.84 µM.
“N-[2-(Dimethylamino)ethyl]-4-[(2-(3-(1,2-dicarba-closo-dodecaborane-1-yl)propanamido)ethyl)amino]-1,8-naphthalimide [Compound 36]”: in the assay on calf thymus DNA (ct-DNA), the “ΔTm ct-DNA” value worked out at 1.33 °C. For the same substance, in the assay on calf thymus DNA (ct-DNA), the “effect on thermal stability” value is reported as “better DNA stabilization”. For the same substance, the IC50 with HepG2 cells is 6.03 ± 0.91 µM; on human topoisomerase IIα, 7.72 µM.
On to “4-{1-[3-(1,2-Dicarba-closo-dodecaborane-1-yl)propyl]-1H-1,2,3-triazol-4-yl}methoxy-1,8-naphthalic anhydride [Compound 14]”, for which the “ΔTm ct-DNA” value in the assay on calf thymus DNA (ct-DNA) turned out to be 0.33 °C. In the assay on HepG2 cells, the IC50 turned out to be 34.1 ± 2.33 µM.
For “N-[2-(N-Pyrrolidinyl)ethyl]-4-[3-(1,2-dicarba-closo-dodecaborane-1-yl)propoxy]-1,8-naphthalimide [Compound 25]” the same measures were 0.33 °C and 15.2 ± 2.02 µM.
For “N-[2-(Dimethylamino)ethyl]-4-[(6-(3-(1,2-dicarba-closo-dodecaborane-1-yl)propanamido)hexyl)amino]-1,8-naphthalimide [Compound 40]” the same measures were 0.67 °C and 12.2 ± 0.44 µM.
In the case of “N-[2-(N-Pyrrolidinyl)ethyl]-4-[3-(1,7-dicarba-closo-dodecaborane-1-yl)propoxy]-1,8-naphthalimide [Compound 27]”, in the assay with calf thymus DNA (ct-DNA), the “ΔTm ct-DNA” value came to 0.33 °C. Further, in the assay with HepG2 cells, the IC50 stood at 4.07 ± 1.19 µM.
Take “4-[3-(1,7-Dicarba-closo-dodecaborane-1-yl)propoxy]-1,8-naphthalic anhydride [Compound 23]”: in the assay with calf thymus DNA (ct-DNA), the “ΔTm ct-DNA” value is −0.33 °C and the “effect on thermal stability” value was “destabilization”. In addition, the IC50 in the assay on HepG2 cells is 109 ± 3.78 µM.
Take “N-[2-(N-Pyrrolidinyl)ethyl]-4-[(6-(3-(1,2-dicarba-closo-dodecaborane-1-yl)propanamido)hexyl)amino]-1,8-naphthalimide [Compound 42]”: the “ΔTm ct-DNA” value with calf thymus DNA (ct-DNA) worked out at 0.67 °C. In addition, the IC50 in the assay on HepG2 cells was determined as 21.1 ± 3.34 µM.
Consider “N-[2-(Dimethylamino)ethyl]-4-[(6-(3-(1,7-dicarba-closo-dodecaborane-1-yl)propanamido)hexyl)amino]-1,8-naphthalimide [Compound 41]”, for which, in the assay with calf thymus DNA (ct-DNA), the “ΔTm ct-DNA” value is −1.33 °C and the “effect on thermal stability” value was “destabilization”. Also, the IC50 in the assay with HepG2 cells amounted to 11.9 ± 0.92 µM.
Consider “N-[2-(Dimethylamino)ethyl]-4-[3-(1,7-dicarba-closo-dodecaborane-1-yl)propoxy]-1,8-naphthalimide [Compound 26]”, for which, in the assay with calf thymus DNA (ct-DNA), the “ΔTm ct-DNA” value was determined as 1.33 °C and the “effect on thermal stability” value was “better DNA stabilization”. Besides, in the assay with HepG2 cells, the IC50 is 4.89 ± 2.59 µM.
For “N-[2-(N-Pyrrolidinyl)ethyl]-4-[(6-(3-(1,2-dicarba-closo-dodecaborane-1-yl)propanamido)hexyl)amino]-1,8-naphthalimide [Compound 43]”, the “ΔTm ct-DNA” value with calf thymus DNA (ct-DNA) came to 1.00 °C. Moreover, the IC50 with HepG2 cells was found to be 40 ± 3.89 µM.
